Results on three compounds are retold here after article PMC12267423, “Comparisons of pharmacokinetics of glimepiride in combination with Ojeok-san versus glimepiride alone: an open-label, one-sequence, two-treatment controlled clinical study” (Scientific Reports, 2025).

The subject of one data set is healthy male subjects. Put plainly: Safety and tolerability (adverse events) in healthy male subjects. It is filed as in vivo, human. As for the experimental part: Safety and tolerability were assessed during the study period. The occurrence of AEs was monitored, and the investigators assessed its causal relationship with the study drugs. Vital signs, 12-lead electrocardiography (ECGs), physical examinations, and laboratory tests were performed and reviewed.

For data set [1] the following is noted: cited from earlier work.
The test system of the next data set is glucose. Also noted: method as in PMID 33262578. As to conditions: 4 mg glimepiride, 75 g glucose load; cited from earlier work.
Data set [2] concerns serum glucose concentration. Put plainly: Oral glucose tolerance test (pharmacodynamics) before and after glimepiride with or without OJS. As to conditions: glucose 50 g (glimepiride alone), 75 g (with OJS).
Experimental: Oral glucose tolerance tests (OGTT) were performed before and after glimepiride administration on days 1 and 9, and days 2 and 10, respectively, to assess the PD effects (Supplementary information).
The PD parameters included the maximum serum glucose concentration (Gmax), 2-hour serum glucose level (PP2), and area under the glucose concentration-time curve for 4 h after glucose administration (AUG0–4 h), which was calculated using the linear trapezoidal rule. The change values of Gmax, PP2, and AUG0–4 h were calculated by subtracting the baseline serum glucose concentrations from the corresponding post-administration values at each time point, following glimepiride administration with or without OJS. The maximum of these difference values was defined as the change in Gmax, and the value at 2 h as the change in PP2. The area under the curve from 0 to 4 h was calculated using linear trapezoidal method and defined as change in AUG0 − 4 h. Additionally, the percent change (%change) was calculated as: 100×(change value / baseline value).
The initial protocol stipulated the administration of 75 g of glucose; however, due to a lapse in protocol adherence by the administering clinical research nurse, which involved an incorrect glucose dosage of 50 g stemming from a failure to accurately verify the medication label, a deviation occurred (a report of this protocol violation was filed with the Institutional Review Board). Consequently, the plasma glucose assessment post-glimepiride monotherapy was conducted using 50 g of glucose, whereas the evaluation of the combined effect of glimepiride and OJS during the second admission utilized 75 g of glucose, introducing variance in glucose exposure across the two evaluations.
Data set [3] can be described thus: Pharmacokinetics of glimepiride and M1 in plasma, glimepiride alone versus with Ojeok-san, clinical crossover study. As to conditions: for Reduction of mean Cmax with OJS compared to glimepiride monotherapy: absorption phase; for CL/F / t1/2,0–24 h / AUC(0-t) / half-life / t1/2,0–48 h: mean ± SD; for Tmax: median (min–max); for Geometric mean ratio of AUC0–24 h (%, 90% CI) / Geometric mean ratio of AUC0–48 h (%, 90% CI) / Geometric mean ratio of AUCinf (%, 90% CI) / Geometric mean ratio of Cmax (%, 90% CI): glimepiride and OJS co-administration to glimepiride alone.
Experimental: (§1) Glimepiride (4 mg) was orally administered once daily on days 1–2 during period 1. Subsequently, the 4.35 g/pack of OJS was orally administered three times a day on days 4–11 during period 2, and glimepiride (4 mg) was co-administered once a day on days 9–10 during period 2. Glimepiride (4 mg) was administered at approximately 12:00 PM on days 1 and 9 and at approximately 8:00 AM on days 2 and 10. The 4.35 g/pack of OJS was administered thrice a day at 7:00–10:00 AM, 12:00–03:00 PM, and 6:00–9:00 PM on days 4–11. However, during hospitalization, OJS was administered at approximately 7:00 AM on days 9–10, just 1 h before glimepiride administration.
(§2) For the PK analysis of glimepiride, blood samples were collected immediately before the glimepiride administration on days 1 and 9 on the first day of each period. On days 2 and 10, blood samples were collected immediately before glimepiride administration (0 h) and 0.25, 0.5, 1, 1.5, 2, 2.5, 3, 3.5, 4, 5, 6, 8, 12, 15, 24, and 48 h after glimepiride administration.
(§3) The analyte was separated using a YMC hydrosphere C18 (50 × 2.0 mm, 3 μm; YMC, USA) at 40 ℃. The mobile phase consists of 5 mM ammonium formate and 100% acetonitrile (20:80, v/v) with a flow rate of 180 µL/min. The compounds were detected in the positive mode using an electrospray ionization source. […] A linear response of glimepiride was shown in the range of 2 to 1000 ng/mL (r^2 ≥ 0.9970), and the lower limit of quantification was determined as 2 ng/mL.
(§4) PK parameters were calculated using the noncompartmental method in Phoenix WinNonlin 8.3 (Certara USA Inc., Princeton, NJ, USA). […] The terminal elimination rate constant (kz) was estimated from the regression of the log-linear decrease in the plasma concentration-time profile. The terminal elimination half-life (t1/2) was calculated as the natural logarithm of 2 divided by kz. The area under the plasma concentration-time curve (AUC) from dosing to 24 h post-dosing (AUC0–24 h) and AUC0–48 h from dosing to 48 h post-dosing were calculated using the linear/log trapezoidal rule. The AUC from 0 to infinity (AUCinf) was calculated as AUC0–24 h + C24 / kz, where kz is the terminal elimination rate constant estimated from linear regression of the terminal phase of the log-linear plot of the plasma concentration-time curve. The metabolic ratio was calculated by dividing the M1 AUC0–24 h by glimepiride AUC0–24 h.
(§5) All statistical analyses were performed using SAS 9.4 (SAS Institute Inc. Cary, NC, USA). Descriptive statistics were calculated for continuous variables.

For data set [4] the following is noted: human, in vivo, 4 mg.
Experimental: as §1, §2, §3, §4, §5
The mark [5] stands for this setting: glimepiride administered with a meal.
Setting [6] is: OGTT after glimepiride, mean ± SD.
The mark [7] stands for this setting: glimepiride 4 mg qd + OJS 4.35 g tid, N = 13.
Where [8] appears, read: glimepiride 4 mg qd alone, N = 16.
Where [9] appears, read: male, human, plasma, oral, 4 mg.

Read-outs that look alike come from different tables or passages of the source.

Regarding `CCC1=C(C)CN(C(=O)NCCc2ccc(S(=O)(=O)NC(=O)N[C@H]3CC[C@H](C)CC3)cc2)C1=O` [Glimepiride], the “Subjects reporting adverse events” value in the data set with healthy male subjects (period 1 (glimepiride alone), 6 out of 16 subjects) is 37.5%. The “Subjects reporting adverse events” value with healthy male subjects (period 2 (OJS with glimepiride), 2 out of 13 subjects) is on record as 15.4%. The “Metabolites recovered in the urine” value in data set [1] was “approximately 60%”. Further, in data set [1] (co-administered with aspirin), the “Reduction of mean AUC” value is reported as 34% and the “Reduction of mean Cmax” value was 4%. The “Time to peak plasma concentrations” value in data set [1] (following oral administration) is 2 to 3 h. Further, in data set [1] (setting [5]), the “Decrease of mean AUC” value is on record as 9% and the “Decrease of mean Cmax” value was 8%. Besides, in data set [1] (with colesevelam), the “Reduction of AUC” value is recorded as 18% and the “Reduction of Cmax” value was 8%. Moreover, in the data set on glucose, the “AUG0–3 h after glimepiride treatment” value was 291.8 ± 48.5 mg·h/dL, the “Gmax after glimepiride treatment” value was 134.4 ± 26.9 mg/dL and the “Reduction of Gmax” value is listed as 68.9 ± 25.1 mg/dL. Also, the “PP2, Post-” value in data set [2] (2-hour serum glucose after glimepiride, mean ± SD) is listed as 95.75 ± 29.96 mg/dL. Besides, the “AUG0–4 h % Change” value in data set [2] (100×(change value / baseline value)) is 16.15 ± 5.07%. Besides, in data set [2] (setting [6]), the “AUG0–3h, Post-” value was 334.12 ± 44.24 mg·h/dL and the “Gmax, Post-” value is recorded as 173.88 ± 20.38 mg/dL. In data set [2], the “AUG0–3h % Change” value stood at 15.54 ± 5.82%, the “Gmax % Change” value was determined as 25.48 ± 8.23% and the “PP2 % Change” value came out at 16.88 ± 14.00%. Besides, in data set [2] (post- versus pre-glimepiride), the “AUG0–3h Change” value worked out at 61.07 ± 29.20 mg·h/dL, the “AUG0–4 h Change” value came to 77.01 ± 32.47 mg·h/dL, the “Gmax Change” value is given as 45.63 ± 16.39 mg/dL and the “PP2 Change” value came to 17.94 ± 13.67 mg/dL. Moreover, in data set [3], the “Reduction of mean Cmax with OJS compared to glimepiride monotherapy” value is on record as “approximately 16.86%”; the “Geometric mean ratio of AUC0–24 h (%, 90% CI)” value is 86.43 (77.56–96.31) %; the “Geometric mean ratio of AUC0–48 h (%, 90% CI)” value was 86.98 (77.49–97.63) %; the “Geometric mean ratio of AUCinf (%, 90% CI)” value is 89.15 (81.72–97.26) %. Moreover, in data set [3], the “Geometric mean ratio of Cmax (%, 90% CI)” value is 83.14 (69.96–98.81) %. In data set [3] (setting [7]), the CL/F (usually clearance divided by bioavailability, as obtained after extravascular dosing) is 3.68 ± 1.54 L/h. The Tmax in data set [3] (glimepiride 4 mg qd alone, day 2, plasma, N = 16) is 4.5 (2.0–5.0) h. For the same compound, in data set [3] (setting [8]), the CL/F is on record as 3.28 ± 1.16 L/h and the “t1/2,0–24 h” value was determined as 8.53 ± 4.69 h. In addition, in data set [3] (listed as glimepiride), the “Geometric mean ratio of AUC0–24 h (%, 90% CI)” value is listed as 86.43 (77.56, 96.31) % and the “Geometric mean ratio of Cmax (%, 90% CI)” value is 83.14 (69.96, 98.81) %. In data set [3] (setting [9]), the AUC(0-inf) (in general, the area under the concentration-time curve extrapolated to infinity) is 1380 ± 507 ng·h/mL and the Cmax (commonly the maximum level reached in the sampled fluid or tissue) came to 251 ± 87 ng/mL. The AUC(0-t) (as a rule, exposure summed from dosing to a finite time, without extrapolation to infinity) in data set [3] (male, human, plasma, oral, 4 mg, AUC0–24 h, glimepiride 4 mg qd alone, N = 16) turned out to be 1280 ± 483 ng·h/mL. The exposure AUC(0-t) in data set [3] (male, human, plasma, oral, 4 mg, AUC0–48 h, glimepiride 4 mg qd alone, N = 16) is 1300 ± 519 ng·h/mL. In data set [3] (male, human, plasma, oral, 4 mg, Tmax, glimepiride 4 mg qd alone, day 2, plasma, N = 16), the Tmax is 4.3 h. Moreover, the half-life (as a rule, how long it takes for the measured level to halve) in data set [3] (male, human, plasma, oral, 4 mg, t1/2,0–24 h, glimepiride 4 mg qd alone, N = 16) is 8.5 h. Besides, in data set [3] (male, human, plasma, oral, 4 mg, t1/2,0–48 h, glimepiride 4 mg qd alone, N = 16), the half-life is 8.73 ± 4.78 h. Also, the AUC(0-t) in data set [3] (male, human, plasma, oral, AUC0–24 h, glimepiride 4 mg qd + OJS 4.35 g tid, N = 13) is 1130 ± 406 ng·h/mL. In addition, the AUC(0-t) in data set [3] (male, human, plasma, oral, AUC0–48 h, glimepiride 4 mg qd + OJS 4.35 g tid, N = 13) worked out at 1160 ± 468 ng·h/mL. In addition, the Tmax in data set [3] (male, human, plasma, oral, Tmax, glimepiride 4 mg qd + OJS 4.35 g tid, day 10, plasma, N = 13) is 5 h. Further, in data set [3] (male, human, plasma, oral, t1/2,0–24 h, glimepiride 4 mg qd + OJS 4.35 g tid, N = 13), the half-life was 10.2 ± 4.84 h. Besides, in data set [3] (male, human, plasma, oral, t1/2,0–48 h, glimepiride 4 mg qd + OJS 4.35 g tid, N = 13), the half-life is 9.33 ± 3.02 h. In addition, the “Metabolic ratio (M1 AUC0–24 h / glimepiride AUC0–24 h), co-administration versus glimepiride alone” value in data set [3] (p = 0.1209) was “not significantly different”.
In the case of `CCC1=C(C)CN(C(=O)NCCc2ccc(S(=O)(=O)NC(=O)NC3CCC(CO)CC3)cc2)C1=O` (stereo not drawn) [M1, hydroxy glimepiride], in data set [4], the “AUC0–24 h” value stood at 237.85 ± 61.69 ng·h/mL, the “AUC0–48 h” value came out at 243.05 ± 70.10 ng·h/mL, the AUCinf amounted to 258.17 ± 67.99 ng·h/mL and the Cmax amounted to 32.61 ± 8.08 ng/mL. Moreover, the Tmax in data set [4] is on record as 5.0 (3.0–6.0) h. For the same compound, in data set [3], the “Reduction of mean Cmax with OJS compared to glimepiride monotherapy” value is given as approximately 14.67%; the “Geometric mean ratio of AUC0–24 h (%, 90% CI)” value is 91.77 (85.53–98.46) %; the “Geometric mean ratio of AUC0–48 h (%, 90% CI)” value is recorded as 92.48 (85.29–100.26) %; the “Geometric mean ratio of AUCinf (%, 90% CI)” value is recorded as 95.05 (89.10–101.40) %. Also, in data set [3], the “Geometric mean ratio of Cmax (%, 90% CI)” value is given as 85.33 (77.77–93.62) %. Further, in data set [3] (setting [7]), the CL/F stood at 17.13 ± 4.89 L/h, the “t1/2,0–24 h” value came out at 8.04 ± 2.95 h and the “t1/2,0–48 h” value came out at 8.02 ± 2.80 h. In addition, in data set [3] (setting [8]), the CL/F was found to be 16.40 ± 4.00 L/h, the “t1/2,0–24 h” value came out at 6.73 ± 1.35 h and the “t1/2,0–48 h” value worked out at 7.08 ± 1.97 h.
As to `Cc1ccc(-c2cc(C(F)(F)F)nn2-c2ccc(S(N)(=O)=O)cc2)cc1` [celecoxib], in data set [1] (co-administration with OJS), the “Decrease of AUC” value is reported as 11.5% and the “Decrease of Cmax” value is 27.5%.
